As usually defined, the IC50 is the concentration at which inhibition is half-maximal.

Some results are limits rather than exact numbers.

The record followed here is patent publication US20250011311A1, “AMIDO HETEROAROMATIC COMPOUNDS” (AstraZeneca AB, priority 2022, published 2025).

Data set [1] addresses recombinant 17bHSD13 (N2-K300) (Homo sapiens (Human), UniProt Q7Z5P4). The data set can be described thus: In Vitro 17bHSD13 Enzyme Assay. The data set is classed as biochemical. Particulars: 80 nM 17bHSD13, 0.5 mM NAD, 20 μM Estradiol, 2.5 h; estradiol to estrone by LC-MS/MS. The essentials: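 Human 17bHSD13 (N2-K300, 80 nM) with 0.5 mM NAD, 20 μM estradiol and varied compound in 50 mM Tris-Cl pH 7.4, 5 mM EDTA, 0.01% DDM. Estrone/(estrone+estradiol) ratio read by LC-MS/MS (APCI, positive MRM). Inhibition normalised to DMSO and a known-inhibitor control; IC50 from curve fit.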

Data set [2] deals with human hepatocytes. The data set can be described thus: Assay A: Metabolic Stability in Human Hepatocytes. The data set is classed as in vitro ADME. The note with it: cryopreserved human hepatocytes, 10^6 viable cells/mL, 1 μM compound, 37° C. As to the method: Assay A: Metabolic Stability in Human Hepatocytes
Hepatocyte metabolic stability was determined in accordance with the method described by Jacobson et al., An optimized automated assay for determination of metabolic stability using hepatocytes: assay validation, variance component analysis, and in vivo relevance. Assay Drug Dev Technol 2007, 5 (3), 403-415. DOI: 10.1089/adt.2007.059, which is incorporated herein by reference. Cryopreserved hepatocytes at a concentration of 10^6 viable cells/mL were used. After thawing, hepatocytes were incubated for 10 min to warm to 37° C. and test compounds, dissolved in acetonitrile, were added to give a final concentration of 1 μM. At 0.5, 5, 15, 30, 45, 60, 80, 100 and 120 min, the incubation system was mixed and 20 μL aliquots were transferred at each time point to wells in a separate plate filled with 80 μL MeCN to stop the reaction. The quenching plate was then vortexed followed by centrifugation, and supernatants were analyzed by LC-MS/MS. Peak areas were determined from extracted ion chromatograms, and the in vitro intrinsic clearance (in vitro CLint, in μL/min/10^6 cells) of parent compound was calculated from the slope in the regression analysis of the natural logarithm of parent concentration vs time curve.

Data set [3] deals with recombinant 17bHSD4 (M1-N311) (Homo sapiens (Human), UniProt P51659). The data set is described as follows: In Vitro 17bHSD4 Enzyme Assay. The class given is biochemical. Particulars: 40 nM 17bHSD4, 0.125 mM NAD, 15 μM Estradiol, 1.5 h; NADH fluorescence; read-out: 17HSD17b4 Enzyme assay IC50.
The target of data set [4] is over expressed HSD17β13 in HEK293S cells (Homo sapiens (Human), UniProt Q7Z5P4). The data set can be described thus: In Vitro 17bHSD13 Cell Assay. The class given is cell-based. The note with it: HEK293S cells over expressing HSD17β13; estradiol to estrone conversion, 18 h, LC-MS/MS; read-out: 17bHSD1713 Cell assay IC50. In short, it runs like this:
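HEK293S cells overexpressing HSD17β13 convert estradiol to estrone; product read by LC-MS/MS (APCI, positive MRM) as AUC ratio estrone/(estrone+estradiol). Effect normalised between DMSO and maximal inhibition by a known inhibitor control; IC50 from curve fit.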

In data set [5] the target is CYP2C9 (Homo sapiens (Human), UniProt P11712). The data set is described as follows: Assay B: Cytochrome P450 Inhibition 2C9.
Data set [6] has as its target over expressed HSD17β9 in HEK293S cells (Homo sapiens (Human), UniProt Q92781). The data set is described as follows: In Vitro 17bHSD9 Cell Assay. The data set is classed as cell-based. Particulars: HEK293S cells over expressing HSD17β9; retinol to retinal conversion, 18 h, LC-MS/MS; read-out: 17bHSD9 Cell assay IC50. In short, it runs like this:
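HEK293S cells overexpressing HSD17β9 were plated at 10K cells/well in DMEM + 10% FBS and cultured 18 h. Retinol-to-retinal conversion in media was quantified by LC-MS/MS (MRM) as retinal/(retinal + retinol). IC50 was fitted after normalisation to DMSO and full inhibition by a reference inhibitor.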

recombinant 17bHSD13 (N2-K300), sequence (Q7Z5P4 2-300): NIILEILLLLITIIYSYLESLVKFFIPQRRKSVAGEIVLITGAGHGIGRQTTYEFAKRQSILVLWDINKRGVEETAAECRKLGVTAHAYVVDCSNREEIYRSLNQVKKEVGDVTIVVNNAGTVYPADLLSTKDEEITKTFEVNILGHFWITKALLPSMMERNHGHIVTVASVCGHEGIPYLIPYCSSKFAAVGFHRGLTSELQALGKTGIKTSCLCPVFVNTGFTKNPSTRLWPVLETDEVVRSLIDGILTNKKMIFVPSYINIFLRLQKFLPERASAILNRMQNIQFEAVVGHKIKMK
over expressed HSD17β13 in HEK293S cells, sequence (Q7Z5P4 20-300): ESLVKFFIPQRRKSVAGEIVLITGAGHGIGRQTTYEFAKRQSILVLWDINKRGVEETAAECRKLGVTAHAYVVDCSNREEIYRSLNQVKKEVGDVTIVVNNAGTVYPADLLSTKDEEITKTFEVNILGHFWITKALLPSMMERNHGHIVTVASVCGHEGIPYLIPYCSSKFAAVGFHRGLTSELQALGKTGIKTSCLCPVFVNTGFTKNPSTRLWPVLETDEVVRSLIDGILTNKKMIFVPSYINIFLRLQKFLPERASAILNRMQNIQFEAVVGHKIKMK
over expressed HSD17β9 in HEK293S cells, sequence (Q92781 whole entry): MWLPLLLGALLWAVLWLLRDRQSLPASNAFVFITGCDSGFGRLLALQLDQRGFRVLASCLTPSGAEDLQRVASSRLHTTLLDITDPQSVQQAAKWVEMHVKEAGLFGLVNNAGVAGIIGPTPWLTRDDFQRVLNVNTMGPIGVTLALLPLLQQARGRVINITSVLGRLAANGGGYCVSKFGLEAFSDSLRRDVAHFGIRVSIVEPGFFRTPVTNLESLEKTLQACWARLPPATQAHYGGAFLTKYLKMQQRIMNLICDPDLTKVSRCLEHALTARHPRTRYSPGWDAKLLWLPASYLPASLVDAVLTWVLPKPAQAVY
CYP2C9, sequence (P11712 whole entry): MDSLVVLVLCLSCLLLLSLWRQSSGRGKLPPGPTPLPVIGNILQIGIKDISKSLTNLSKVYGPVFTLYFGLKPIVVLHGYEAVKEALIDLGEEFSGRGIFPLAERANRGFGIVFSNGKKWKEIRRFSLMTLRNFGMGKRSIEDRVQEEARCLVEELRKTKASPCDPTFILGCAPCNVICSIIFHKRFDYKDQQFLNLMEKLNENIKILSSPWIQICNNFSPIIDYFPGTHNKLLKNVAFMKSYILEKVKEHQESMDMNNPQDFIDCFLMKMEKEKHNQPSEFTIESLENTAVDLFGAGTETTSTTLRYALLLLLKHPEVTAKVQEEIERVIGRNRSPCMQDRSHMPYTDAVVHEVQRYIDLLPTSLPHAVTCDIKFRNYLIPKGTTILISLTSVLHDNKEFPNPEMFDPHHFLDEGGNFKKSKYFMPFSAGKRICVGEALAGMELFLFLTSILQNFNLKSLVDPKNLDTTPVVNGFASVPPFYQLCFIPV
recombinant 17bHSD4 (M1-N311), sequence (P51659 1-311): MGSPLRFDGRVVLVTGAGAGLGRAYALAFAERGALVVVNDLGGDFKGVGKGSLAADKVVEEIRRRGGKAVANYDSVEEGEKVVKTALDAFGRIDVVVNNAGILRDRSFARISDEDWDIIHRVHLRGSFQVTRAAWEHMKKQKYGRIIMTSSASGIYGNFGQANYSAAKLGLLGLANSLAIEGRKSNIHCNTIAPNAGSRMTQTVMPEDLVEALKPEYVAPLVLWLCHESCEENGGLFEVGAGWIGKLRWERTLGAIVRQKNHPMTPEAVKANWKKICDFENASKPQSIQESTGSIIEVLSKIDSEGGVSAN

With `N#Cc1c(C(=O)N2CCN(c3ccccn3)CC2)noc1-c1cc(F)c(F)c(O)c1F` [Example 15, 3-(4-(Pyridin-2-yl)piperazine-1-carbonyl)-5-(2,4,5-trifluoro-3-hydroxyphenyl)isoxazole-4-carbonitrile], the half-maximal inhibitory concentration (IC50) in data set [1] turned out to be 489 nM; in data set [3] it was 37700 nM; in data set [4], 970 nM; in data set [5], 2100 nM. The “Assay A: Human Heps Met Clint GMean CLint (μl/min/1E6)” value in data set [2] is recorded as 59.8 μl/min/1E6.

On to `CC(C)(C)N(Cc1ccccn1)C(=O)c1noc(-c2cc(F)c(F)c(O)c2F)c1C#N` [Example 19, N-(tert-Butyl)-4-cyano-N-(pyridin-2-ylmethyl)-5-(2,4,5-trifluoro-3-hydroxyphenyl)isoxazole-3-carboxamide], for which the IC50 in data set [1] came out at 108 nM; in data set [3] it was 19600 nM; in data set [4], 2010 nM; in data set [5] it was 1000 nM. For the same compound, the “Assay A: Human Heps Met Clint GMean CLint (μl/min/1E6)” value in data set [2] was 4.3 μl/min/1E6.

For `Cn1nc(C2CC2)c2c1CCN(C(=O)c1noc(-c3cc(F)c(F)c(O)c3F)c1C#N)C2` [Example 20, 3-(3-Cyclopropyl-1-methyl-4,5,6,7-tetrahydro-1H-pyrazolo[4,3-c]pyridine-5-carbonyl)-5-(2,4,5-trifluoro-3-hydroxyphenyl)isoxazole-4-carbonitrile], the concentration for half-maximal inhibition (IC50) in data set [1] was found to be 63 nM; in data set [6], 29400 nM; in data set [4], 2400 nM; in data set [5], 400 nM. Also, in data set [2], the “Assay A: Human Heps Met Clint GMean CLint (μl/min/1E6)” value was 16.8 μl/min/1E6.

For the compound `N#Cc1c(C(=O)N2CC[C@@H](c3ccc(Cl)cc3)C2)noc1-c1cc(F)c(F)c(O)c1F` [Example 21, (S)-3-(3-(4-Chlorophenyl)pyrrolidine-1-carbonyl)-5-(2,4,5-trifluoro-3-hydroxyphenyl)isoxazole-4-carbonitrile], the half-maximal inhibitory concentration (IC50) in data set [1] was 32 nM; in data set [6], 22600 nM; in data set [4], 660 nM; in data set [5], 200 nM. Besides, the “Assay A: Human Heps Met Clint GMean CLint (μl/min/1E6)” value in data set [2] is reported as 13.3 μl/min/1E6.

For the compound `N#Cc1ccc(C2CCN(C(=O)c3noc(-c4cc(F)c(F)c(O)c4F)n3)CC2)cc1` [Example 56, 4-(1-(5-(2,4,5-Trifluoro-3-hydroxyphenyl)-1,2,4-oxadiazole-3-carbonyl)piperidin-4-yl)benzonitrile], the half-maximal inhibitory concentration (IC50) was 142 nM in data set [1], 23500 nM in data set [3], 1360 nM in data set [4] and 5100 nM in data set [5]. Besides, the “Assay A: Human Heps Met Clint GMean CLint (μl/min/1E6)” value in data set [2] is 5.9 μl/min/1E6.

Turning to `O=C(c1noc(-c2cc(F)c(F)c(O)c2F)n1)N1CCN(c2ccccn2)CC1` [Example 58, (4-(Pyridin-2-yl)piperazin-1-yl)(5-(2,4,5-trifluoro-3-hydroxyphenyl)-1,2,4-oxadiazol-3-yl)methanone], the IC50 in data set [1] was found to be 103 nM; in data set [3], 20600 nM; in data set [4] it was 1080 nM; in data set [5], 7300 nM. In addition, in data set [2], the “Assay A: Human Heps Met Clint GMean CLint (μl/min/1E6)” value is 24.6 μl/min/1E6.

With `N#Cc1ccc(C2CN(C(=O)c3noc(-c4cc(F)c(F)c(O)c4F)n3)C2)cc1` [Example 59, 4-(1-(5-(2,4,5-Trifluoro-3-hydroxyphenyl)-1,2,4-oxadiazole-3-carbonyl)azetidin-3-yl)benzonitrile], the half-inhibitory concentration (IC50) was 608 nM in data set [1], above 50000 nM in data set [6], 3470 nM in data set [4] and 13100 nM in data set [5]. The “Assay A: Human Heps Met Clint GMean CLint (μl/min/1E6)” value in data set [2] came to 10.2 μl/min/1E6.

As to `O=C(c1noc(-c2cc(F)c(F)c(O)c2F)n1)N1CC(c2ccccc2)C1` [Example 60, (3-Phenylazetidin-1-yl)(5-(2,4,5-trifluoro-3-hydroxyphenyl)-1,2,4-oxadiazol-3-yl)methanone], the IC50 in data set [1] worked out at 137 nM; in data set [3], 11000 nM; in data set [4], 2980 nM; in data set [5], 3900 nM. For the same compound, the “Assay A: Human Heps Met Clint GMean CLint (μl/min/1E6)” value in data set [2] is reported as 13.8 μl/min/1E6.

In the case of `COc1ccc(C(C)N(C)C(=O)c2noc(-c3cc(F)c(F)c(O)c3F)n2)cc1` (centres unmarked) [Example 78, N-(1-(4-Methoxyphenyl)ethyl)-N-methyl-5-(2,4,5-trifluoro-3-hydroxyphenyl)-1,2,4-oxadiazole-3-carboxamide], the values for the IC50 in data set [1], in data set [4] and in data set [5] were 127 nM, 800 nM and 3000 nM, respectively. Also, the “Assay A: Human Heps Met Clint GMean CLint (μl/min/1E6)” value in data set [2] was 28.2 μl/min/1E6.

Regarding `O=C(c1noc(-c2cc(F)c(F)c(O)c2F)n1)N1CCC(Oc2ccc(F)cc2)C1` (centres unmarked) [Example 79, (3-(4-Fluorophenoxy)pyrrolidin-1-yl)(5-(2,4,5-trifluoro-3-hydroxyphenyl)-1,2,4-oxadiazol-3-yl)methanone], the half-maximal inhibitory concentration (IC50) worked out at 106 nM in data set [1], 1390 nM in data set [4] and 2000 nM in data set [5]. The “Assay A: Human Heps Met Clint GMean CLint (μl/min/1E6)” value in data set [2] was determined as 10.1 μl/min/1E6.

For `N#Cc1ccccc1N1CCN(C(=O)c2noc(-c3cc(F)c(F)c(O)c3F)n2)CC1` [Example 82, 2-(4-(5-(2,4,5-Trifluoro-3-hydroxyphenyl)-1,2,4-oxadiazole-3-carbonyl)piperazin-1-yl)benzonitrile], the half-maximal inhibitory concentration (IC50) in data set [1] was 62 nM; in data set [6], above 50000 nM; in data set [4], 450 nM; in data set [5], 4300 nM. In addition, the “Assay A: Human Heps Met Clint GMean CLint (μl/min/1E6)” value in data set [2] amounted to 15.4 μl/min/1E6.

Take `N#Cc1ccc(N2CCN(C(=O)c3noc(-c4cc(F)c(F)c(O)c4F)n3)CC2)cc1` [Example 83, 4-(4-(5-(2,4,5-Trifluoro-3-hydroxyphenyl)-1,2,4-oxadiazole-3-carbonyl)piperazin-1-yl)benzonitrile]: the IC50 was 102 nM in data set [1], 14400 nM in data set [3], 2880 nM in data set [4] and 6200 nM in data set [5]. In addition, in data set [2], the “Assay A: Human Heps Met Clint GMean CLint (μl/min/1E6)” value is listed as 11.8 μl/min/1E6.

Regarding `O=C(c1nnc(-c2ccc(F)c(O)c2)o1)N1CCOC2(CCC2)C1` [Example 90, (5-(4-Fluoro-3-hydroxyphenyl)-1,3,4-oxadiazol-2-yl)(5-oxa-8-azaspiro[3.5]nonan-8-yl)methanone], the IC50 in data set [1] is 626 nM; in data set [3], above 50000 nM; in data set [4] it was 1690 nM; in data set [5], above 30000 nM. The “Assay A: Human Heps Met Clint GMean CLint (μl/min/1E6)” value in data set [2] was above 300 μl/min/1E6.

In the case of `O=C(c1noc(-c2cc(F)c(F)c(O)c2F)n1)N1CCC(OCc2ccccc2)C1` (centres unmarked) [Example 97, (3-(Benzyloxy)pyrrolidin-1-yl)(5-(2,4,5-trifluoro-3-hydroxyphenyl)-1,2,4-oxadiazol-3-yl)methanone], the IC50 in data set [1] was found to be 122 nM; in data set [3], 26200 nM; in data set [4] it was 890 nM; in data set [5] it was 1800 nM. Moreover, the “Assay A: Human Heps Met Clint GMean CLint (μl/min/1E6)” value in data set [2] came out at 46.6 μl/min/1E6.

`N#Cc1ccc2c(c1)CN(C(=O)c1noc(-c3cc(F)c(F)c(O)c3F)n1)C2` [Example 106, 2-(5-(2,4,5-Trifluoro-3-hydroxyphenyl)-1,2,4-oxadiazole-3-carbonyl)isoindoline-5-carbonitrile]: the concentration for half-maximal inhibition (IC50) in data set [1] is 516 nM; in data set [6], above 50000 nM; in data set [4] it was 1220 nM; in data set [5], 5900 nM. Also, the “Assay A: Human Heps Met Clint GMean CLint (μl/min/1E6)” value in data set [2] was found to be 16.1 μl/min/1E6.

For the compound `C[C@@H]1CN(C(=O)c2noc(-c3c(F)c(O)c(F)c(F)c3Br)n2)C[C@H](C)O1` [Example 124, (5-(2-Bromo-3,4,6-trifluoro-5-hydroxyphenyl)-1,2,4-oxadiazol-3-yl)((2R,6S)-2,6-dimethylmorpholino)methanone], the IC50 is 42 nM in data set [1], 24100 nM in data set [6] and 27000 nM in data set [5]. Also, the “Assay A: Human Heps Met Clint GMean CLint (μl/min/1E6)” value in data set [2] is on record as 11.1 μl/min/1E6.
